Assays:
keratinocytes = conditions: just-subconfluent keratinocyte cultures, 60 minutes' incubation; BM165 mAb 50 µg/mL, 10-mM EDTA
Experimental: Cells were grown in Keratinocyte Growth Medium (KGM) containing 0.15 mM CaCl2 and subcultured according to the manufacturer's instructions (Clonetics). For most immunocytochemical experiments, first- or second-passage cells were grown in glass or plastic chamber slides (Lab-Tek) or on glass cover slips to approximately 80 percent confluency. For large-scale collection, spent-media cells were grown in 150-cm^2 tissue culture dishes and fed three times per week with 15 mL fresh media.
Keratinocytes were grown to near confluence and either fixed immediately (FIGS. 4B and 4D) or washed with PBS and incubated with BM165 mAb (50 µg/mL) followed by 5-nm gold-conjugated secondary antibody prior to fixation (FIGS. 4A and 4C).
To further pursue these observations, just-subconfluent keratinocyte cultures were separately incubated with purified BM165 mAb for 10 and 60 minutes. After incubation, the cultures were photographed (FIGS. 5A-F). Purified mAbs in PBS, PBS alone, or 10-mM EDTA were incubated with keratinocytes in parallel. Parallel cultures were also incubated with anti-type-VII monoclonal IgG in PBS for the corresponding same length of time.

SMILES	rounding and detachment of dermal fibroblasts (Dermal fibroblasts)	rounding and detachment of the keratinocytes (keratinocytes)	secretion of kalinin into the medium (secretion of kalinin)
O=C(O)CN(CCN(CC(=O)O)CC(=O)O)CC(=O)O [EDTA]	rounded and detached	extensive rounding and detachment	–
COc1cc2c(c(OC)c1OC)-c1ccc(OC)c(=O)cc1[C@@H](NC(C)=O)CC2 [colchicine]	–	–	inhibited

Reference: patent publication EP0675728B1, “PRODUCTS AND METHODS FOR IMPROVING KE[…] TO THE DERMIS” (STATE OF OREGON BY AND THROUGH OREGON STATE BOARD OF HIGHER …, priority 1992, dated 1994)
